Laboratory results published in patent publication US9902709B2, “Polysubstituted pyridine compound, preparation method, use and pharmaceutical composition” (PEKING UNIVERSITY FOUNDER GROUP CO., LTD., priority 2014, dated 2018).

Tests used:
[1] = tested on: SK-OV-3 human ovarian cancer cell strain; test: In vitro anti-proliferation of tumor cells (CCK-8), SK-OV-3; type: cell-based; settings: SK-OV-3, 72 hours
Experimental: (§1) Experimental Example 2: Determination of the Compounds According to the Present Invention for IC50 of the In Vitro Anti-Proliferation of Tumor Cells
SK-OV-3 human ovarian cancer cell strain (purchased from Shanghai Institute of Cell Biology, Chinese Academy of Sciences);
(§2) Preparation of a compound: the compound was diluted with DMSO to a final concentration of 10 mM.
(§3) a) Cells in logarithmic growth phase were collected, counted, and re-suspended in complete medium. The concentration of cells was adjusted to a suitable concentration (determined depending on the result of optimization experiment of cell density), and the cells were seeded to a 96-well plate at 100 μl cell suspension per well. The cells were incubated in an incubator at 37° C., 100% relative humidity, 5% CO2 for 24 hours.
(§4) b) A test compound was diluted with the culture medium to 500 μM, and then gradient dilution was performed for 8 times. Cells were added at 25 μl/well. The final concentrations of the compound was in a range from 100 μM and 0 μM, 4-fold diluted, including 10 concentrations.
(§5) c) The cells were incubated in an incubator at 37° C., 100% relative humidity, 5% CO2 for 72 hours.
(§6) d) The culture medium was withdraw and discarded, the complete medium containing 10% CCK-8 was added, and then the cells were incubated in an incubator at 37° C. for 2-4 hours.
(§7) IC50 curve was fitted and IC50 value was calculated by professional software GraphPad Prism 5.0.
(§8) In the experiment, the compounds according to the present invention were determined for their IC50 values of in vitro anti-proliferation of tumor cell strains. The final concentrations of the compounds was in a range from 100 μM and 0 μM, 4-fold diluted, including 10 concentrations.

[2] = tested on: MiaPaCa-2 human pancreatic cancer cell strain; test: In vitro anti-proliferation of tumor cells (CCK-8), MiaPaCa-2; type: cell-based; settings: MIA PaCa-2, MiaPaCa-2, 72 hours
Experimental: as §1
MiaPaCa-2 human pancreatic cancer cell strain (purchased from American ATCC);
as §2, §3, §4, §5, §6, §7, §8

[3] = tested on: A498 human renal carcinoma cell strain; test: In vitro anti-proliferation of tumor cells (CCK-8), A498; type: cell-based; settings: A498, 72 hours
Experimental: as §1
A498 human renal carcinoma cell strain (purchased from Shanghai Institute of Cell Biology, Chinese Academy of Sciences);
as §2, §3, §4, §5, §6, §7, §8

[4] = tested on: 786-O human renal clear cell carcinoma cell strain; test: In vitro anti-proliferation of tumor cells (CCK-8), 786-O; type: cell-based; settings: 786-0, 72 hours
Experimental: as §1
786-O human renal clear cell carcinoma cell strain (purchased from Shanghai Institute of Cell Biology, Chinese Academy of Sciences);
as §2, §3, §4, §5, §6, §7, §8

[5] = tested on: NCI-H460 Human large cell lung cancer cell strain; test: In vitro anti-proliferation of tumor cells (CCK-8), NCI-H460; type: cell-based; settings: NCI-H460, 72 hours
Experimental: as §1
NCI-H460 Human large cell lung cancer cell strain (purchased from Shanghai Institute of Cell Biology, Chinese Academy of Sciences);
as §2, §3, §4, §5, §6, §7, §8

[6] = tested on: MDA-MB-231 human mammary cancer cell strain; test: In vitro anti-proliferation of tumor cells (CCK-8), MDA-MB-231; type: cell-based; settings: for IC50: Homo sapiens, MDA-MB-231, 72 hours, CCK-8
Experimental: as §1
MDA-MB-231 human mammary cancer cell strain (purchased from Shanghai Institute of Cell Biology, Chinese Academy of Sciences);
as §2, §3, §4, §5, §6, §7, §8

[7] = tested on: HepG2 human liver cancer cell strain; test: In vitro anti-proliferation of tumor cells (CCK-8), HepG2; type: cell-based; settings: HepG2, 72 hours
Experimental: as §1
HepG2 human liver cancer cell strain (purchased from Shanghai Institute of Cell Biology, Chinese Academy of Sciences);
as §2, §3, §4, §5, §6, §7, §8

[8] = tested on: HCT116 human colon cancer cell strain; test: In vitro anti-proliferation of tumor cells (CCK-8), HCT-116; type: cell-based; settings: HCT-116, 72 hours
Experimental: as §1
HCT116 human colon cancer cell strain (purchased from Shanghai Institute of Cell Biology, Chinese Academy of Sciences);
as §2, §3, §4, §5, §6, §7, §8

[9] = tested on: HL-60 human acute myeloid leukemia cell strain; test: In vitro anti-proliferation of tumor cells (CCK-8), HL-60; type: cell-based; settings: HL-60, 72 hours
Experimental: as §1
HL-60 human acute myeloid leukemia cell strain (purchased from Shanghai Institute of Cell Biology, Chinese Academy of Sciences);
as §2, §3, §4, §5, §6, §7, §8

[10] = Pharmacokinetics in mice; type: in vivo; settings: female, plasma, CD-1 mouse; for bioavailability: PO 5 mg/kg vs IV 1 mg/kg, read-out: F (oral bioavailability); for AUC(0-t): read-out: AUClast (area under the curve)
Experimental: Administration route: intravenous injection (IV); per os (PO).
Fasting condition: free access to water, no fasting.
The mice were weighed before administration, and the administration volume was calculated based on their body weights (IV group: 4 mL/kg; PO group: 10 mL/kg).
Administration route and dose: Intravenous (IV) group: 1 mg/kg; Oral (PO) group: 5 mg/kg.
Animal grouping: 3 mice/group, an IV group and a PO group for each test compound.
After administration, 30 μL whole blood was collected from rim of the eyes of mice in the IV group at each pre-determined time point (5 min, 15 min, 30 min, 1 h, 2 h, 4 h, 8 h, 24 h), and 30 μL whole blood was collected from rim of the eyes of mice in the PO group at each pre-determined time point (15 min, 30 min, 1 h, 2 h, 4 h, 8 h, 24 h). The whole blood was centrifuged (6,000 rpm, 5 min) to get blood plasma. All the blood plasma samples were stored in a refrigerator of −80° C. for further analysis.
Conditions of LC/MS/MS was as follows:
Pharmacokinetic parameters were estimated according to non-compartment model (calculated by WinNonlin software): […]
IV paramater: t1/2 (hr); C0 (ng/mL); AUClast (hr*ng/mL); AUCInf (hr*ng/mL); AUC Extr (%); Vz (L/kg); Vss (L/kg); CL (mL/min/kg); MRT (hr).
PO parameter: t1/2 (hr); tmax (hr); Cmax (ng/mL); AUClast (hr*ng/mL); AUCInf (hr*ng/mL); AUC Extr (%); MRT (hr); AUC/D (hr*mg/mL); F (%).

[11] = PO 5 mg/kg, average of three mice

SMILES: Cn1cc(-c2nccc(Oc3ccc(NC(=O)Nc4ccc(Cl)c(C(F)(F)F)c4)cc3)c2Cl)cn1 [Example 2, 1-(4-chloro-3-(trifluoromethyl)phenyl)-3-(4-(3-chloro-2-(1-methyl-pyrazol-4-yl)-pyridin-4-yl-oxy)phenyl)urea]
- IC50 [1]: 5.76 µM
- IC50 [2]: 2.34 µM
- IC50 [3]: 4.71 µM
- IC50 [4]: 2.77 µM
- IC50 [5]: 1.05 µM
- IC50 [6]: 3.05 µM
- IC50 as fold of that of Sorafenib ([6]; MDA-MB-231 cell line): 0.30 fold
- IC50 [7]: 0.808 µM
- IC50 [8]: 3.16 µM
- IC50 [9]: 18.2 µM
- bioavailability [10]: 82.9%
- AUC(0-t) [10, 11]: 56600 ng·h/mL
- Cmax ([10]; PO 5 mg/kg, average of three mice, read-out: Cmax (peak concentration)): 3010 ng/mL

SMILES: CNC(=O)c1cc(Oc2ccc(NC(=O)Nc3ccc(Cl)c(C(F)(F)F)c3)cc2)ccn1 [Comparative example 1, Sorafenib, reference compound]
- IC50 [1]: 17.9 µM
- IC50 [2]: 3.06 µM
- IC50 [3]: 5.49 µM
- IC50 [4]: 4.51 µM
- IC50 [5]: 1.27 µM
- IC50 [6]: 10 µM
- IC50 [7]: 0.947 µM
- IC50 [8]: 4.56 µM
- IC50 [9]: 22 µM
- bioavailability [10]: 78.6%
- AUC(0-t) [10, 11]: 18900 ng·h/mL
